Data taken from the NIST ThermoML archive (doi:10.1016/j.tca.2013.03.008).

Assay: xn = mol fraction of the nth substance listed
Conditions: 101 kPa, Liquid; for viscosity: Capillary tube (Ostwald / Ubbelohde) method; for mass density: Vibrating tube method

CCOC(=O)CCl [ethyl chloroethanoate] + CCC(=O)CC
Conditions	mass density, 298.15 K [kg/m3]	mass density, 308.15 K [kg/m3]	mass density, 318.15 K [kg/m3]	viscosity, 298.15 K [mPa·s]	viscosity, 308.15 K [mPa·s]	viscosity, 318.15 K [mPa·s]
x2 = 0	1144.11	1131.46	1118.74	1.095	0.939	0.815
x2 = 0.0502	1127.54	1115	1102.39	1.05	0.902	0.783
x2 = 0.0877	1115.18	1102.73	1090.21	1.017	0.874	0.76
x2 = 0.1207	1104.29	1091.91	1079.49	0.987	0.85	0.741
x2 = 0.1692	1088.28	1076.05	1063.74	0.944	0.815	0.713
x2 = 0.2551	1059.87	1047.89	1035.82	0.87	0.756	0.666
x2 = 0.3266	1036.16	1024.36	1012.49	0.813	0.71	0.63
x2 = 0.413	1007.44	995.88	984.26	0.75	0.659	0.587
x2 = 0.4998	978.47	967.18	955.81	0.695	0.612	0.548
x2 = 0.574	953.63	942.56	931.39	0.653	0.575	0.517
x2 = 0.6638	923.44	912.62	901.71	0.604	0.533	0.48
x2 = 0.7475	895.2	884.6	873.95	0.562	0.498	0.449
x2 = 0.827	868.26	857.9	847.48	0.522	0.466	0.421
x2 = 0.9114	839.54	829.45	819.27	0.481	0.434	0.391

CCOC(=O)CCl [ethyl chloroethanoate] + CCC(C)O
Conditions	mass density, 298.15 K [kg/m3]	mass density, 308.15 K [kg/m3]	mass density, 318.15 K [kg/m3]	viscosity, 298.15 K [mPa·s]	viscosity, 308.15 K [mPa·s]	viscosity, 318.15 K [mPa·s]
x2 = 0	1144.11	1131.46	1118.74	1.095	0.934	0.816
x2 = 0.1008	1111.91	1099.43	1086.98	1.055	0.895	0.778
x2 = 0.204	1078.95	1066.72	1054.42	1.041	0.877	0.755
x2 = 0.2885	1051.67	1039.71	1027.56	1.033	0.875	0.756
x2 = 0.3625	1027.45	1015.7	1003.8	1.048	0.88	0.753
x2 = 0.45	998.34	986.92	975.3	1.107	0.895	0.759
x2 = 0.5384	968.29	957.21	945.94	1.183	0.945	0.791
x2 = 0.6138	942.27	931.52	920.57	1.246	0.987	0.817
x2 = 0.6906	915.31	904.95	894.31	1.332	1.063	0.866
x2 = 0.7724	886.17	876.24	865.99	1.489	1.182	0.947
x2 = 0.8541	856.59	847.12	837.33	1.789	1.367	1.089
x2 = 0.9197	832.49	823.43	814.03	2.183	1.611	1.225

CCC(=O)CC [pentan-3-one] + CCC(C)O
Conditions	mass density, 298.15 K [kg/m3]	mass density, 308.15 K [kg/m3]	mass density, 318.15 K [kg/m3]	viscosity, 298.15 K [mPa·s]	viscosity, 308.15 K [mPa·s]	viscosity, 318.15 K [mPa·s]
x1 = 0.0848	803.03	794.48	785.52	2.069	1.539	1.172
x1 = 0.1511	803.42	794.8	785.78	1.602	1.246	0.976
x1 = 0.2353	803.97	795.22	786.14	1.229	0.986	0.802
x1 = 0.3023	804.42	795.58	786.43	1.039	0.854	0.711
x1 = 0.3793	804.94	795.99	786.77	0.879	0.734	0.622
x1 = 0.4676	805.54	796.47	787.16	0.761	0.637	0.55
x1 = 0.4927	805.71	796.61	787.27	0.731	0.612	0.531
x1 = 0.5536	806.12	796.95	787.54	0.657	0.57	0.499
x1 = 0.6269	806.62	797.36	787.87	0.6	0.524	0.461
x1 = 0.7129	807.21	797.84	788.26	0.536	0.482	0.429
x1 = 0.8104	807.89	798.4	788.7	0.494	0.446	0.403
x1 = 0.9043	808.59	798.96	789.15	0.466	0.419	0.378
x1 = 1	809.38	799.55	789.63	0.442	0.398	0.362
